The text below walks through data of patent US12503485B2, “Human aminosterol ENT-03 compounds, related compositions comprising the same, and methods of using the same” (Enterin, Inc., priority 2019, dated 2025).

The test system of test [1] is stomach tissues gene expression. Briefly: Stomach RNA-sequencing, effect size evaluation of treatment contrasts. The format is in vivo, mice. The protocol:
(§1) Male C57Bl/6 mice, aged 20 and 78 weeks, were obtained from Jackson labs. Animals were exposed to 12 hr light dark cycles and provided Teklad standard mouse diet and water ad lib.
(§2) Animals were dosed once daily by oral gavage in the morning for a total of 14 days. Animals were fasted 3-4 hours prior to dosing and at least 1 hour following dosing, with fasting not to exceed 6 hours. The test article was dissolved in 0.5% hydroxypropylcellulose in water. On day 15 the animals were euthanized by CO2 asphyxiation, necropsied, and tissues prepared for histology and RNAseq analysis.
Samples of stomach tissues from the mice were analysed by RNA-sequencing on an Illumina platform.
A four-fold change in expression between groups was used as a measure of pseudo-significance in the absence of replicate samples. At this threshold, differentially expressed genes were identified in all contrasts. […]

The next test has as its system stomach mRNA. The experiment in a line: Stomach transcriptome (RNAseq) after oral ENT-01 in old mice. The format is in vivo. Particulars: old mice after treatment. On the procedure: as §1, §2
The GI tracts of the animals were sectioned into stomach, duodenum, jejunum, ileum, caecum, colon, and rectum. The tissues were then sent for histology, and the transcriptomes analyzed by RNAseq.

In a further test the target is T1, PTPN11/SHP2-FL (E76K) (Homo sapiens, UniProt Q06124, E76K).
T1 sequence (Q06124 2-597 isoform Q06124-1 E76K): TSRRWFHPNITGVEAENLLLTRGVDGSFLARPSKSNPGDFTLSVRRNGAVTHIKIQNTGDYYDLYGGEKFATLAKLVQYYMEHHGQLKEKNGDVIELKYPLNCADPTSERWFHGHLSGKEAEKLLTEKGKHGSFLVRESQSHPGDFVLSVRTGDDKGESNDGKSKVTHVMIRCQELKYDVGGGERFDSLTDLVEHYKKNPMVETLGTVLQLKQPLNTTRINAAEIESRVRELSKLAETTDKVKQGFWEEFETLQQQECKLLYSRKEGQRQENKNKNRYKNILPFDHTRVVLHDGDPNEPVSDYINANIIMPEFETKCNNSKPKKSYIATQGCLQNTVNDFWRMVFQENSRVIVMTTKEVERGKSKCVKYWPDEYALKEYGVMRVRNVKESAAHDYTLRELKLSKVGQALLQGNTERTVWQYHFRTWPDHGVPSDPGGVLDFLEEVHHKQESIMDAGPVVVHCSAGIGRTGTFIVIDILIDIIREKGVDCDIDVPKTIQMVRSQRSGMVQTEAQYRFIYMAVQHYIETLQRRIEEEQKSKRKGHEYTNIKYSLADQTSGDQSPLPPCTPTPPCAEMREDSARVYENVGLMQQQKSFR
The experiment in a line: Phosphatase assay PTPN11/SHP2-FL (E76K).

The target in another test is T2, PTPN6/SHP1 (Homo sapiens, UniProt P29350).
T2 construct: purchased Recation Biology Inc
T2 sequence (P29350 whole entry): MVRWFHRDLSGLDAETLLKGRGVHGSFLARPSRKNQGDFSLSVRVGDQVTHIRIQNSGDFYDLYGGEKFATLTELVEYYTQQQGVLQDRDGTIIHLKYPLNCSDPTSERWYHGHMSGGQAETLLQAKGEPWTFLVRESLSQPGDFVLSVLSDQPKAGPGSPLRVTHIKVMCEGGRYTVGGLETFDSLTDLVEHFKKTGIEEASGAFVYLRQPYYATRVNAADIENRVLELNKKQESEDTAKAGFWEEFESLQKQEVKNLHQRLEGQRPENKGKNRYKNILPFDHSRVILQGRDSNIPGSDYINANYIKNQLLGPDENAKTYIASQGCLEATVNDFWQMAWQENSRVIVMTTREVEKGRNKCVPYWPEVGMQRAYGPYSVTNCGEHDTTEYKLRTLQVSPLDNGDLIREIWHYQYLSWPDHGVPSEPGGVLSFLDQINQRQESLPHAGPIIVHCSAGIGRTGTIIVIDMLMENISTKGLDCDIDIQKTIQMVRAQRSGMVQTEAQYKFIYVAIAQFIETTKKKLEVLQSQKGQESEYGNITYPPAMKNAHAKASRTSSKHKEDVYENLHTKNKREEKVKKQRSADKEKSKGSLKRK
Briefly: Phosphatase assay PTPN6/SHP1. The format is biochemical.

A further test concerns the target T3, PTPN2/TC-PTP (Homo sapiens, UniProt P17706).
T3 construct: purchased Recation Biology Inc
T3 sequence (P17706 1-415): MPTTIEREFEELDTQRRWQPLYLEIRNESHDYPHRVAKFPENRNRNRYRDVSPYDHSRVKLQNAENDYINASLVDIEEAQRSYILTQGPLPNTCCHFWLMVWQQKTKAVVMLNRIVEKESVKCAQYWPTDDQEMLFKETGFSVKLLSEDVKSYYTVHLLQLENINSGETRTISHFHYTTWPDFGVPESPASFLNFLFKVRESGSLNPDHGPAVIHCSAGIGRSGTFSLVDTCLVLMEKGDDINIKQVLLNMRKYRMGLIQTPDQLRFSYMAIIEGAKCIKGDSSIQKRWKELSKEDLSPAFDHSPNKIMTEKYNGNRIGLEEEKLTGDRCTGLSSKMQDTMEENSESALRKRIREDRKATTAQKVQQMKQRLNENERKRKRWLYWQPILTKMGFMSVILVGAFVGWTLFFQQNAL
Briefly: Phosphatase assay PTPN2/TC-PTP. The format is biochemical.

In test [2] the target is T4, PP2A Alpha/PP2R1A Complex (Homo sapiens, UniProt P67775).
T4 construct: purchased Recation Biology Inc
T4 sequence (P67775 whole entry): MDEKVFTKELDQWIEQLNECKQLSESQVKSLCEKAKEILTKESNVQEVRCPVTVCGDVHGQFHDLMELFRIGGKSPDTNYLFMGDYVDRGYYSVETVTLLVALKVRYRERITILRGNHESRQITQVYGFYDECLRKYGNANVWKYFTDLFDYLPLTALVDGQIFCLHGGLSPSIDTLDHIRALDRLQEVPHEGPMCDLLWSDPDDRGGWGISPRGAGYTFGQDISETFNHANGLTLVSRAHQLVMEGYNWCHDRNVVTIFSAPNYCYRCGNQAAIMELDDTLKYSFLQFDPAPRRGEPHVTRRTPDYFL
T4 sequence (P30153 whole entry partner): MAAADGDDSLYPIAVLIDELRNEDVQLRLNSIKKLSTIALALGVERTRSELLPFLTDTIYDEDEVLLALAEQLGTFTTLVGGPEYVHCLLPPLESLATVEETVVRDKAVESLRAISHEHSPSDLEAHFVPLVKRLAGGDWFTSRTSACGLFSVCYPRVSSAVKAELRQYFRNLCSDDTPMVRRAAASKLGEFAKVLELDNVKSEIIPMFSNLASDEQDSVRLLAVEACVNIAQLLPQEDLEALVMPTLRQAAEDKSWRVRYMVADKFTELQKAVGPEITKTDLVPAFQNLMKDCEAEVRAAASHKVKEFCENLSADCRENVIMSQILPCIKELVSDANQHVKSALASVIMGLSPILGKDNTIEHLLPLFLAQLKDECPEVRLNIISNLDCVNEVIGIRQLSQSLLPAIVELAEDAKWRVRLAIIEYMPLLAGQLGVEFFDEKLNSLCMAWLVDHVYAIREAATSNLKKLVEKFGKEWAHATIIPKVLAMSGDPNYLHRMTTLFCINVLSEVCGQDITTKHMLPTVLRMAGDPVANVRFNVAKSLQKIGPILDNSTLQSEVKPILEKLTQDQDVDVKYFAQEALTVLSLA
Briefly: Phosphatase assay PP2A Alpha/PP2R1A Complex. The format is biochemical.

In a further test the target is T5, PP1A (Homo sapiens, UniProt P62136).
T5 construct: purchased Recation Biology Inc
T5 sequence (P62136 whole entry): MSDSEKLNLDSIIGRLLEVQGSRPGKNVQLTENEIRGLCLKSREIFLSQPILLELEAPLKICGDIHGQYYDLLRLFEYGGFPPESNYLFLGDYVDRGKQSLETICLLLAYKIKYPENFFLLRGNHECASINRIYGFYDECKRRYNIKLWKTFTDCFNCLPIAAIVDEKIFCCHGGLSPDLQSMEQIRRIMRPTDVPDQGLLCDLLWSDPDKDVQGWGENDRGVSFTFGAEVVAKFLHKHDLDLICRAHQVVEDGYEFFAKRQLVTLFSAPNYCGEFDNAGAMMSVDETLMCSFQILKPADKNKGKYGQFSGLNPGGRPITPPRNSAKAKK
Briefly: Phosphatase assay PP1A (DiFMUP fluorescence). The format is biochemical.

Another test has as its target T6, PP1B (Homo sapiens, UniProt P62140).
T6 construct: purchased Recation Biology Inc
Briefly: Phosphatase assay PP1B (DiFMUP fluorescence). The format is biochemical.

Another test concerns RXR/NURR1. Conditions: Ogundare et al., 2010; cited from earlier work.
The target of a further test is FXR (Homo sapiens, UniProt Q96RI1). Particulars: Ogundare et al., 2010; cited from earlier work.
FXR, sequence (Q96RI1 whole entry, species assumed): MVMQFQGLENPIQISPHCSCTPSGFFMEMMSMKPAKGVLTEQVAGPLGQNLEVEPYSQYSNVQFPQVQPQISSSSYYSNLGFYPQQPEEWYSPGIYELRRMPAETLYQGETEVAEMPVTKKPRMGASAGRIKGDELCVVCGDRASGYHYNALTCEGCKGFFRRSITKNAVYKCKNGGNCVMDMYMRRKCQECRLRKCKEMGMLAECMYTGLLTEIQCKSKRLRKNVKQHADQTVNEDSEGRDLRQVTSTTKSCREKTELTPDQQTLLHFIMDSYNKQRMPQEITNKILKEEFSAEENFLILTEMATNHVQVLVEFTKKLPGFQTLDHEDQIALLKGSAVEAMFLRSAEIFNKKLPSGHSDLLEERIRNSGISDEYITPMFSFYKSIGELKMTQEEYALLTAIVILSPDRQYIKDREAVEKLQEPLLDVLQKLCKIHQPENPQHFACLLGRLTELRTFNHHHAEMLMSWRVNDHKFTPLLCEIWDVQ
The next test concerns LXR. Particulars: Ogundare et al., 2010; cited from earlier work.
Test [3] is described as follows: Body weight of mice after i.p. deuterated ENT-03. The format is in vivo. From the text:
The presence of the deuterium on the side chain likely slows the action of the 2-methylacyl-coenzyme A racemase on C-25, the subsequent action of the dehydrogenase that produces the 24,25-trans-unsaturated derivative by removing the deuterium atoms at C24 and C25, and the subsequent hydration and oxidation at the C24 bond catalyzed by the D-bifunctional protein. Instead, the metabolism of ENT-03D3 will begin with the oxidation at C24 by CYP46A1, yielding the following compound: […]

For the next test, the target named is PTPN11/SHP2 (Homo sapiens, UniProt Q06124). The experiment in a line: Phosphatase assay PTPN11/SHP2. The format is biochemical. Particulars: Table 2C; read-out: Compound IC50 (M) PTPN11/SHP2.
PTPN11/SHP2, sequence (Q06124 whole entry): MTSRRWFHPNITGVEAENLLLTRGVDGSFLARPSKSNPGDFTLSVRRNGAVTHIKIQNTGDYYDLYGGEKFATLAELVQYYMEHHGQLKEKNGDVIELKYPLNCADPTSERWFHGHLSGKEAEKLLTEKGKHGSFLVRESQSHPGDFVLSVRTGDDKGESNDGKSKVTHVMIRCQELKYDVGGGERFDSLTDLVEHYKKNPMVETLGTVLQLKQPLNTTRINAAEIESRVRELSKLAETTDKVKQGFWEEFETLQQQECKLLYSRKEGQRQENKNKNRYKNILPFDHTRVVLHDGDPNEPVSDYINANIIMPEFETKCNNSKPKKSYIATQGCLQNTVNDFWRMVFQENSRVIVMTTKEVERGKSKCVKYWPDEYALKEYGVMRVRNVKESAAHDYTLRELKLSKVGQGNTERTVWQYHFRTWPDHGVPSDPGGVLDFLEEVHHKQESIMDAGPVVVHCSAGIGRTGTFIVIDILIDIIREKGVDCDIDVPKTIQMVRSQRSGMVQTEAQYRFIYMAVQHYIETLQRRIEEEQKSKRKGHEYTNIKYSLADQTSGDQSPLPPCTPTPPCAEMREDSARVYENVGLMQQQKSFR

T6 sequence (P62140 whole entry): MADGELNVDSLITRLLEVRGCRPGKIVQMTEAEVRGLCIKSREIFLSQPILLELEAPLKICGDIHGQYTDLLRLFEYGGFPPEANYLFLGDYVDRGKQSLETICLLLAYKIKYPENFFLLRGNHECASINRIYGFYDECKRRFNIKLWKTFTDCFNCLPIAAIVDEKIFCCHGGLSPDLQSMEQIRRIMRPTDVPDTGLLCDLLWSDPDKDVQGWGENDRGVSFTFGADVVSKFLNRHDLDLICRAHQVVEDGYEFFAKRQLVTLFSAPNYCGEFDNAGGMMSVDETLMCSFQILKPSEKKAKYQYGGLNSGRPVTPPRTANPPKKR

For `CC(C)[C@@H](CC[C@@H](C)[C@H]1CC[C@H]2[C@@H]3[C@H](O)C[C@H]4C[C@@H](NCCCNCCCCN)CC[C@]4(C)[C@H]3CC[C@]12C)OS(=O)(=O)O` (single isomer, unassigned) [ENT-01, squalamine phosphate], in [1] (Old vs young, both treated), the “number of significant features, Down-regulated, fold change threshold 1.3×” value is given as 1606; the “number of significant features, Down-regulated, fold change threshold 2×” value is on record as 267; the “number of significant features, Down-regulated, fold change threshold 4×” value was 69; the “number of significant features, Down-regulated, fold change threshold 8×” value came out at 36. In addition, in test [1] (Old vs young, both treated), the “number of significant features, Down-regulated, fold change threshold 16×” value came out at 27; the “number of significant features, Down-regulated, fold change threshold Any” value worked out at 7534; the “number of significant features, Up-regulated, fold change threshold 1.3×” value is 1647; the “number of significant features, Up-regulated, fold change threshold 2×” value is on record as 559. In test [1] (Old vs young, both treated), the “number of significant features, Up-regulated, fold change threshold 4×” value is recorded as 263; the “number of significant features, Up-regulated, fold change threshold 8×” value was found to be 178; the “number of significant features, Up-regulated, fold change threshold 16×” value amounted to 135; the “number of significant features, Up-regulated, fold change threshold Any” value is given as 7479. In [1] (treatment vs control (old)), the “number of significant features, Down-regulated, fold change threshold 1.3×” value was 2235; the “number of significant features, Down-regulated, fold change threshold 2×” value worked out at 431; the “number of significant features, Down-regulated, fold change threshold 4×” value is 66; the “number of significant features, Down-regulated, fold change threshold 8×” value was 25. Besides, in test [1] (treatment vs control (old)), the “number of significant features, Down-regulated, fold change threshold 16×” value is 11; the “number of significant features, Down-regulated, fold change threshold Any” value is 7460; the “number of significant features, Up-regulated, fold change threshold 1.3×” value turned out to be 2430; the “number of significant features, Up-regulated, fold change threshold 2×” value is recorded as 766. Besides, in test [1] (treatment vs control (old)), the “number of significant features, Up-regulated, fold change threshold 4×” value is 317; the “number of significant features, Up-regulated, fold change threshold 8×” value came out at 168; the “number of significant features, Up-regulated, fold change threshold 16×” value is reported as 116; the “number of significant features, Up-regulated, fold change threshold Any” value was found to be 7553. For the same molecule, in [1] (treatment vs control (young)), the “number of significant features, Down-regulated, fold change threshold 1.3×” value amounted to 2367; the “number of significant features, Down-regulated, fold change threshold 2×” value stood at 642; the “number of significant features, Down-regulated, fold change threshold 4×” value was 144; the “number of significant features, Down-regulated, fold change threshold 8×” value came to 47. In [1] (treatment vs control (young)), the “number of significant features, Down-regulated, fold change threshold 16×” value was determined as 12; the “number of significant features, Down-regulated, fold change threshold Any” value turned out to be 7553; the “number of significant features, Up-regulated, fold change threshold 1.3×” value came out at 1430; the “number of significant features, Up-regulated, fold change threshold 2×” value is recorded as 232. For the same molecule, in [1] (treatment vs control (young)), the “number of significant features, Up-regulated, fold change threshold 4×” value stood at 58; the “number of significant features, Up-regulated, fold change threshold 8×” value was determined as 38; the “number of significant features, Up-regulated, fold change threshold 16×” value is on record as 28; the “number of significant features, Up-regulated, fold change threshold Any” value is recorded as 7460. Also, the “mRNA levels for all of the genes in Table 5A, in words” value with stomach mRNA is “significant increase”.

As to `CC(CCCC(C)C1CCC2C3C(O)CC4CC(NCCCNCCCCN)CCC4(C)C3CC(O)C12C)C(=O)O` (single isomer, unassigned) [ENT-05], on PTPN11/SHP2-FL (E76K), the IC50 was 43 nM.

As to `CC(CCCC(C)C1CCC2C3C(O)CC4CC(NCCCNCCCCN)CCC4(C)C3CCC12C)C(=O)O` (single isomer, unassigned) [ENT-06], the “activity at PTPN6/SHP1, in words” value on PTPN6/SHP1 was “inactive”. Also, the “activity at PTPN2, in words” value on PTPN2/TC-PTP was “inactive”. Besides, the “activity at PP2A alpha, in words” value in test [2] was “inactive”. At PTPN11/SHP2-FL (E76K), this molecule came in with an IC50 of 345 nM. At PP1A, the “activity at PP1A, in words” value was “inactive”. Moreover, the “activity at PP1B, in words” value on PP1B is “inactive”.

As for `C[C@H](CCC[C@@H](C)[C@H]1CCC2C3C(CC[C@@]21C)[C@@]1(C)CCC(=O)C=C1C[C@H]3O)C(=O)O` (stereo partly drawn) [7-HOCA, 7-alpha hydroxy-3-oxo-4-cholestenoic acid], the “activation of RXR/NURR1 receptors” value in the test with RXR/NURR1 is recorded as “did not activate”. Moreover, at FXR, the “activation of FXR receptor” value is given as “did not activate”. Moreover, the “activation of LXR receptor” value in the test with LXR is “did not activate”.

For the molecule `[2H]C([2H])(CCC(C)C1CCC2C3C(O)CC4CC(NCCCNCCCCNCCCN)CCC4(C)C3CCC12C)C([2H])(C)C(=O)O` (stereo not drawn) [ENT-03D3], in test [3], the “effect on body weight, in words” value is reported as “gained weight”.

Turning to `CCc1oc2cc(S(=O)(=O)Nc3ccc(S(=O)(=O)Nc4nccs4)cc3)ccc2c1C(=O)c1cc(Br)c(O)c(Br)c1` [PTP1B Inhibitor, 3-(3,5-Dibromo-4-hydroxy-benzoyl)-2-ethyl-benzofuran-6-sulfonicacid-(4-(thiazol-2-ylsulfamyl)-phenyl)-amide], the IC50 at PTPN11/SHP2 came out at 1.82e-06 M.
